Measured values taken from patent publication US11247976B2, “Synthetic ligands that modulate the activity of the RhlR quorum sensing receptor” (Wisconsin Alumni Research Foundation, priority 2016, dated 2022).
“Also recorded” adds a separate entry of the source.

Assays:
RhlR [1] = molecular target: T1, RhlR (Pseudomonas aeruginosa, UniProt P54292); test: E. coli RhlR reporter antagonism assay vs 10 μM BHL (JLD271/pJN105R2/pSC11-rhlI*); assay type: cell-based, P. aeruginosa; details: for inhibition at 10 µM: read-out: % inhibition (10 μM), compound at 10 μM in the presence of 10 μM BHL; for inhibition at 10 µM / inhibition at 1000 µM: negative = agonism stronger than 10 μM BHL alone; for inhibition at 1000 µM: read-out: % inhibition (1 mM), compound at 1 mM in the presence of 10 μM BHL
T1 construct: expressed in transfected cells; host or cells: E. coli JLD271 (ΔsdiA) with pJN105R2 (arabinose-induced) and pSC11-rhlI*
T1 sequence (P54292 whole entry): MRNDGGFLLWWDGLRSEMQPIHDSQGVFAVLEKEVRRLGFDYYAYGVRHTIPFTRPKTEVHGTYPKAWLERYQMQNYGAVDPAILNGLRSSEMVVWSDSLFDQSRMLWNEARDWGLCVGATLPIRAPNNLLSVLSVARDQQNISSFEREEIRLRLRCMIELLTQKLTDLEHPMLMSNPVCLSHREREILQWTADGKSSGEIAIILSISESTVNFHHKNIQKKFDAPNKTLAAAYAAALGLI

RhlR [2] = molecular target: T1, RhlR; test: E. coli RhlR reporter agonism assay (JLD271/pJN105R2/pSC11-rhlI*); assay type: cell-based, P. aeruginosa; details: for activation at 10 µM: compound at 10 μM, RhlR activity relative to 1 mM BHL; for Emax: read-out: Maximum Activation (%)
RhlR [3] = molecular target: T1, RhlR; test: P. aeruginosa RhlR reporter agonism assay (PAO-JP2/prhlI-LVAgfp); assay type: cell-based; details: for Emax: read-out: Maximum Activation (%)

Row | SMILES | inhibition at 10 µM (RhlR [1]) [%] | inhibition at 1000 µM (RhlR [1]) [%] | EC50 (RhlR [2]) [µM] | activation at 10 µM (RhlR [2]; E. coli reporter) [%] | Emax (RhlR [2]) [%] | EC50 (RhlR [3]) [µM] | Emax (RhlR [3]) [%] | RhlR antagonist activity in words (RhlR [1]; E. coli reporter vs 10 μM BHL) | Maximum Inhibition (%) (RhlR [1]; E. coli reporter, relative to activation of 10 μM BHL alone) | RhlR agonist potency in words (RhlR [2]; dose-response, E. coli reporter)
1 | O=C(N[C@H]1CCCC1=O)C1CCC1 [RN12] | -39 | -98 | 5.94 | > 50 | 93 | 7.35 | 96 |  |  | 
2 | O=C(COc1ccc(I)cc1)N[C@H]1CCSC1=O [RN22] | 28 |  |  | 1 |  |  |  | potent antagonist activity; also recorded: activity comparable to previously identified compound E22 | 81 | 
3 | CC(C)CC(=O)N[C@H]1CCCC1=O [RN36] | -35 | -122 | 7.58 | > 50 | 101 | 11.2 | 96 |  |  | 
4 | CC(C)CC(=O)N[C@H]1CCSC1=O [RN37] | -59 | -81 | 0.463 |  | 93 | 2.58 | 91 |  |  | improves potency two-fold over the homoserine lactone variant; also recorded: most potent RhlR agonist found in the E. coli reporter
